Assay results published in article PMC11190219 (2024).

What was measured:
[1] = system: c-KIT1 (DNA, G4) GGGAGGGCGCTGGGAGGAGGG; experiment: fluorescence titration (ligand emission); conditions: K+ 60 mM (potassium cacodylate); pH 7.4, room temperature, 2.5 µM TBP2, Hill-1 fit, apparent
[2] = system: h-TELO (DNA, G4) TTGGGTTAGGGTTAGGGATTAGGGA; experiment: fluorescence titration (ligand emission); conditions: K+ 60 mM (potassium cacodylate); pH 7.4, room temperature, 2.5 µM TBP2, Hill-1 fit, apparent
[3] = system: BCL-2 (DNA, G4) GGGCGCGGGAGGAATTGGGCGGG; experiment: fluorescence titration (ligand emission); conditions: K+ 60 mM (potassium cacodylate); pH 7.4, room temperature, 2.5 µM TBP2, Hill-1 fit, apparent
[4] = system: c-MYC22 (NMR) (DNA, G4) TGAGGGTGGGTAGGGTGGGTAA; experiment: 1D 1H NMR titration; conditions: K+ 100 mM; 25 mM Tris-HCl, pH 7.4, 100 µM DNA, 5-7.5% d6-DMSO
[5] = system: FAM-c-KIT1-TAMRA (DNA, G4) GGGAGGGCGCTGGGAGGAGGG; experiment: FRET melting; conditions: K+ 60 mM (potassium cacodylate); pH 7.4, 2 µM compound, 0.2 µM DNA
[6] = system: c-KIT2 (DNA, G4) GGGCGGGCGCTAGGGAGGGG; experiment: fluorescence titration (ligand emission); conditions: K+ 60 mM (potassium cacodylate); pH 7.4, room temperature, 2.5 µM TBP2, Hill-1 fit, apparent
[7] = system: FAM-c-KIT2-TAMRA (DNA, G4) GGGCGGGCGCTAGGGAGGGG; experiment: FRET melting; conditions: K+ 60 mM (potassium cacodylate); pH 7.4, 2 µM compound, 0.2 µM DNA
[8] = system: FAM-BCL-2-TAMRA (DNA, G4) GGGCGCGGGAGGAATTGGGCGGG; experiment: FRET melting; conditions: K+ 60 mM (potassium cacodylate); pH 7.4, 2 µM compound, 0.2 µM DNA

Kd [1] | Kd [2] | Kd [3] | binding [4] | ΔTM [5] | Kd [6] | ΔTM [7] | ΔTM [8] | SMILES
9.5 µM | 8.2 µM | 10.2 µM | yes | 1.3 ± 0.1 °C | 9.2 µM | 4.1 ± 0.2 °C | 3.8 ± 0.2 °C | CN(C)CCCNC(=O)c1csc(NC(=O)c2csc(NC(=O)CCCc3cn(CCNC(=O)c4csc(NC(=O)c5csc(N)n5)n4)nn3)n2)n1
– | – | – | – | 0 °C | – | 0.5 ± 0 °C | 1 ± 0 °C | CN(C)CCCNC(=O)c1csc(NC(=O)c2csc(NC(=O)CCCc3cn(CCNC(=O)c4csc(NC(=O)c5csc(NC(=O)OC(C)(C)C)n5)n4)nn3)n2)n1
